System: 379773-124-R-J2-PDC spheroid viability
Assay: Anticancer human tumor 379773-124-R-J2-PDC patient-derived endometrial carcinoma cell line growth inhibition [POLQ]
Conditions: spheroids with HUVEC and MSC; for IC50: curve of first compound; for viability, T/C: stronger effect = lower value; active means viability on the fitted dose curve at most 10% of control; inactive means the rest
How it was run: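 Growth inhibition in 3D: complex spheroids (tumor PDC, HUVEC, MSC) treated with POLQ inhibitor combinations; where Cmax unknown, highest tested concentration 10 microM, except SN-38 at 1 microM.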
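Further: spheroids exposed to drugs for seven days before readout.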
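Wherever viability, T/C is given: percent viability relative to DMSO vehicle control taken as 100%.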

CC(=O)O[C@H]1C(=O)[C@@]2(C)[C@H]([C@H](OC(=O)c3ccccc3)[C@]3(O)C[C@H](OC(=O)[C@H](O)[C@@H](NC(=O)c4ccccc4)c4ccccc4)C(C)=C1C3(C)C)[C@]1(OC(C)=O)CO[C@@H]1C[C@@H]2O + Nc1ccc(C#CCN(C(=O)Cc2ncc(C(F)(F)F)cc2C(F)(F)F)c2ccc(F)cc2)nn1
inactive: viability, T/C (second compound 0.0316 µM, first compound 0.00949 µM) 22.9% | viability, T/C (second compound 0.1 µM, first compound 0.00949 µM) 19% | viability, T/C (second compound 0.1 µM, first compound 0.03 µM) 11.5% | viability, T/C (second compound 0.316 µM, first compound 0.00949 µM) 23.7% | viability, T/C (second compound 0.316 µM, first compound 0.03 µM) 9.89% | viability, T/C (second compound 0.316 µM, first compound 0.0949 µM) 10.2% | viability, T/C (second compound 0.316 µM, first compound 0.3 µM) 12.1% | viability, T/C (second compound 0.316 µM, first compound 0.949 µM) 10.1% | viability, T/C (second compound 0.316 µM, first compound 3 µM) 9.75% | viability, T/C (second compound 1 µM, first compound 0.00949 µM) 28.3% | viability, T/C (second compound 1 µM, first compound 0.03 µM) 10.3% | viability, T/C (second compound 3.16 µM, first compound 0.00949 µM) 23.4% | viability, T/C (second compound 3.16 µM, first compound 0.03 µM) 9.86% | viability, T/C (second compound 3.16 µM, first compound 0.0949 µM) 9.86% | viability, T/C (second compound 3.16 µM, first compound 0.3 µM) 10.8% | viability, T/C (second compound 3.16 µM, first compound 0.949 µM) 11% | viability, T/C (second compound 3.16 µM, first compound 3 µM) 9.15% | viability, T/C (second compound 10 µM, first compound 0.00949 µM) 25.1% | viability, T/C (second compound 10 µM, first compound 0.03 µM) 10.9%
active: viability, T/C (second compound 0.0316 µM, first compound 0.03 µM) 8.34% | viability, T/C (second compound 0.0316 µM, first compound 0.0949 µM) 8.59% | viability, T/C (second compound 0.0316 µM, first compound 0.3 µM) 12% | viability, T/C (second compound 0.0316 µM, first compound 0.949 µM) 7.39% | viability, T/C (second compound 0.0316 µM, first compound 3 µM) 10.1% | viability, T/C (second compound 0.1 µM, first compound 0.0949 µM) 8.46% | viability, T/C (second compound 0.1 µM, first compound 0.3 µM) 9.83% | viability, T/C (second compound 0.1 µM, first compound 0.949 µM) 9.69% | viability, T/C (second compound 0.1 µM, first compound 3 µM) 8.71% | viability, T/C (second compound 1 µM, first compound 0.0949 µM) 10.1% | viability, T/C (second compound 1 µM, first compound 0.3 µM) 9.22% | viability, T/C (second compound 1 µM, first compound 0.949 µM) 10.3% | viability, T/C (second compound 1 µM, first compound 3 µM) 8.87% | viability, T/C (second compound 10 µM, first compound 0.0949 µM) 9.07% | viability, T/C (second compound 10 µM, first compound 0.3 µM) 10.1% | viability, T/C (second compound 10 µM, first compound 0.949 µM) 8.38% | viability, T/C (second compound 10 µM, first compound 3 µM) 8.52%
< 9.49 nM: IC50 (second compound 0.0316 µM) | IC50 (second compound 0.1 µM) | IC50 (second compound 0.316 µM) | IC50 (second compound 1 µM) | IC50 (second compound 3.16 µM) | IC50 (second compound 10 µM)

COc1cccc2c1C(=O)c1c(O)c3c(c(O)c1C2=O)CC(O)(C(=O)CO)CC3OC1CC(N)C(O)C(C)O1 (centres undefined) + Nc1ccc(C#CCN(C(=O)Cc2ncc(C(F)(F)F)cc2C(F)(F)F)c2ccc(F)cc2)nn1
inactive: viability, T/C (second compound 0.0316 µM, first compound 0.0316 µM) 84.7% | viability, T/C (second compound 0.0316 µM, first compound 0.1 µM) 41.7% | viability, T/C (second compound 0.0316 µM, first compound 0.316 µM) 11.1% | viability, T/C (second compound 0.1 µM, first compound 0.0316 µM) 87.7% | viability, T/C (second compound 0.1 µM, first compound 0.1 µM) 37.4% | viability, T/C (second compound 0.1 µM, first compound 0.316 µM) 15.2% | viability, T/C (second compound 0.316 µM, first compound 0.0316 µM) 90.3% | viability, T/C (second compound 0.316 µM, first compound 0.1 µM) 33.3% | viability, T/C (second compound 0.316 µM, first compound 0.316 µM) 11.8% | viability, T/C (second compound 1 µM, first compound 0.0316 µM) 89.8% | viability, T/C (second compound 1 µM, first compound 0.1 µM) 26% | viability, T/C (second compound 3.16 µM, first compound 0.0316 µM) 85.1% | viability, T/C (second compound 3.16 µM, first compound 0.1 µM) 37.7% | viability, T/C (second compound 3.16 µM, first compound 0.316 µM) 11.3% | viability, T/C (second compound 10 µM, first compound 0.0316 µM) 71.2% | viability, T/C (second compound 10 µM, first compound 0.1 µM) 26.8% | viability, T/C (second compound 10 µM, first compound 0.316 µM) 10.9%
71.9 nM: IC50 (second compound 0.316 µM)
65.5 nM: IC50 (second compound 1 µM)
78.3 nM: IC50 (second compound 0.0316 µM)
73.4 nM: IC50 (second compound 3.16 µM)
75.9 nM: IC50 (second compound 0.1 µM)
55.4 nM: IC50 (second compound 10 µM)
active: viability, T/C (second compound 0.0316 µM, first compound 1 µM) 12.6% | viability, T/C (second compound 0.0316 µM, first compound 3.16 µM) 1.86% | viability, T/C (second compound 0.0316 µM, first compound 10 µM) 0.23% | viability, T/C (second compound 0.1 µM, first compound 1 µM) 11.9% | viability, T/C (second compound 0.1 µM, first compound 3.16 µM) 2.13% | viability, T/C (second compound 0.1 µM, first compound 10 µM) 0.18% | viability, T/C (second compound 0.316 µM, first compound 1 µM) 10.2% | viability, T/C (second compound 0.316 µM, first compound 3.16 µM) 1.88% | viability, T/C (second compound 0.316 µM, first compound 10 µM) 0.18% | viability, T/C (second compound 1 µM, first compound 0.316 µM) 9.42% | viability, T/C (second compound 1 µM, first compound 1 µM) 10.8% | viability, T/C (second compound 1 µM, first compound 3.16 µM) 1.71% | viability, T/C (second compound 1 µM, first compound 10 µM) 0.23% | viability, T/C (second compound 3.16 µM, first compound 1 µM) 10.1% | viability, T/C (second compound 3.16 µM, first compound 3.16 µM) 3.23% | viability, T/C (second compound 3.16 µM, first compound 10 µM) 1.06% | viability, T/C (second compound 10 µM, first compound 1 µM) 9.24% | viability, T/C (second compound 10 µM, first compound 3.16 µM) 1.29% | viability, T/C (second compound 10 µM, first compound 10 µM) 0.25%
